Measured values: patent US20170173008A1, “ANTIMICROBIAL AGENTS AND SCREENING METHODS” (PRESIDENT AND FELLOWS OF HARVARD COLLEGE, priority 2014, published 2017)
Values after ≈ are worked out from the molar mass of the structure shown. “Also recorded” adds a separate entry of the source. Like-named read-outs stand apart in the source and are kept apart here.

How the values were obtained:
PDI = target: T1, PDI (Homo sapiens, UniProt P07237); test: Insulin reductase activity assay, PDI; type: biochemical
T1 construct: His; purchased Prospec, East Brunswick, N.J

Erp57 = target: T2, Erp57 (Homo sapiens, UniProt P30101); test: Insulin reductase activity assay, Erp57; type: biochemical
T2 construct: His; purchased AbCam, Cambridge, Mass
T2 sequence (P30101 25-505): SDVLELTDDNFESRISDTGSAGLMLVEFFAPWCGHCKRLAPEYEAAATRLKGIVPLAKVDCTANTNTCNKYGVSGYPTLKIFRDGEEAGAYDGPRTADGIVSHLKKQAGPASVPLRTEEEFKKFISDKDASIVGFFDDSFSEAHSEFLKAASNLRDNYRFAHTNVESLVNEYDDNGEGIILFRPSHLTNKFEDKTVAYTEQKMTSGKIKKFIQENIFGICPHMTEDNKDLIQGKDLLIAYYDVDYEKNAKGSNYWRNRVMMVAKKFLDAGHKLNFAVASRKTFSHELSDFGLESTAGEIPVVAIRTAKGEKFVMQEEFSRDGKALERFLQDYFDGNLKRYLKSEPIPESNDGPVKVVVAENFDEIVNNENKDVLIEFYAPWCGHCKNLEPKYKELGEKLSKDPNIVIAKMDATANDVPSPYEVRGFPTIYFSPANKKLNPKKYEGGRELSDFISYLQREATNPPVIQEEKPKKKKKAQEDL

M. tuberculosis H37Rv = M. tuberculosis H37Rv growth inhibition (Alamar Blue MIC); type: cell-based, Mycobacterium tuberculosis; conditions: three different media
Erp5 = target: T3, Erp5 (Homo sapiens, UniProt Q15084); test: Insulin reductase activity assay, Erp5; type: biochemical
T3 construct: His; Passam F., Furie B., Furie B.C; (persons named as the source, not a vendor)
T3 sequence (Q15084 20-440): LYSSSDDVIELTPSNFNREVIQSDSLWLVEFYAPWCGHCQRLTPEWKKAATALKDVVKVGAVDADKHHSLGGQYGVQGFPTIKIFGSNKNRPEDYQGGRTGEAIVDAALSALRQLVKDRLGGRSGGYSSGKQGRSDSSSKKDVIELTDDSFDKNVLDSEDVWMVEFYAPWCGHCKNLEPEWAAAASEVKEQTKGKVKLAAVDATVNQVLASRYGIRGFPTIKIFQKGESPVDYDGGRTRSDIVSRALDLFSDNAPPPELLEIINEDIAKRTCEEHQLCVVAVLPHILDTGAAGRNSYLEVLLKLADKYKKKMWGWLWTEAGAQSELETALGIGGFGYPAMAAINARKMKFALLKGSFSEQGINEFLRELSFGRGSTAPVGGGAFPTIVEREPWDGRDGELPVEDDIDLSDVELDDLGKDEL

Erp72 = target: T4, Erp72 (Homo sapiens, UniProt P13667); test: Insulin reductase activity assay, Erp72; type: biochemical
T4 construct: His; purchased Enzo, Farmingdale, N.Y
T4 sequence (P13667 21-645): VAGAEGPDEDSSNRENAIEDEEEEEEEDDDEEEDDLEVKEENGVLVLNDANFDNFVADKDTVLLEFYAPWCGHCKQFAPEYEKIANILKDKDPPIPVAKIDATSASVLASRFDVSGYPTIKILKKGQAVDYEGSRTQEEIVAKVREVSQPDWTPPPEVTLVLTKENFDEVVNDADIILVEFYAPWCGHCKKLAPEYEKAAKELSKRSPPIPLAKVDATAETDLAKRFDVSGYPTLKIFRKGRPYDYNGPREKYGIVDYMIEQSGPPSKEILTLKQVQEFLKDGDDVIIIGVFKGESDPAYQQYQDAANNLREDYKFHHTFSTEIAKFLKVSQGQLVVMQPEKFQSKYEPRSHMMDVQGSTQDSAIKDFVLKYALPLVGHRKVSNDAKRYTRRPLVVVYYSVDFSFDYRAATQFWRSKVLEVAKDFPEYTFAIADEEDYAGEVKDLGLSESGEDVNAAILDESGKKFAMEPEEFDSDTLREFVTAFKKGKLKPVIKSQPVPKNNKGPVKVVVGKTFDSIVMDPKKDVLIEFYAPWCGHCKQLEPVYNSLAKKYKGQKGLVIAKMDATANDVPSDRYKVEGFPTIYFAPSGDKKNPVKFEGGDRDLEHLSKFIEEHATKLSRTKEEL

mouse VKORc1 = target: T5, mouse VKORc1 (Mus musculus, UniProt Q9CRC0); test: Assay for VKOR enzymatic activity in mouse liver microsomes; type: biochemical
T5 construct: Solubilized mouse liver microsomes (20 μL) were added to 180 μL of buffer; from tissue; host or cells: mouse liver (solubilized microsomes)
T5 sequence (Q9CRC0 1-161): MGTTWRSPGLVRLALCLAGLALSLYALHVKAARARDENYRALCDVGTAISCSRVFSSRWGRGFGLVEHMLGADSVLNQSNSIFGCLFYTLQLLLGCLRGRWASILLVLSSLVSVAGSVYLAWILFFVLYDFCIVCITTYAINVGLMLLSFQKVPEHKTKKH

DsbB [1] = target: T6, DsbB (Escherichia coli, UniProt P0A6M2, C49V/C8A); test: cell-based; type: cell-based, E. coli; conditions: for EC50 RATIO (EC50 compound 16/EC50): E. coli DHB7935, liquid media
T6 construct: expressed in transfected cells; host or cells: E. coli DHB7935 (HK295 ΔdsbB λatt::malF-lacZ102, φ80::pDSW206dsbBhis6-c-myc)

purified EcDsbB = target: T7, purified EcDsbB (Escherichia coli, UniProt P0A6M2, C49V/C8A); test: In vitro assay of purified DsbB (ubiquinone reduction); type: biochemical, E. coli
T7 construct: made in house; host or cells: E. coli
Excerpt: In addition to the in vivo assays of MICs, we have purified DsbB from E. coli and assessed the concentration dependence for inhibition of the enzyme's activity in oxidizing DsbA.
In this assay, we determine the concentration of a compound necessary to reduce the activity of purified DsbB enzyme by 50%. DsbB uses ubiquinone as a co-factor for the generation of disulfide bonds. DsbB oxidizes DsbA and reduces ubiquinone. When it is in the oxidized state, ubiquinone absorbs strongly at 275 nm but it has a diminished absorbance when it is in the reduced state at the same wavelength. Therefore, DsbB activity can be measured by the reduction of ubiquinone and this is assessed by following the decrease of absorbance of ubiquinone at 275 nm. The assay uses 20 μM purified and DTT-reduced DsbA, 20 uM UbQ-5, and 2 nM purified DsbB at pH6.0.
We tested several compounds for their inhibitory effect on EcDsbB-mediated ubiquinone reduction using purified enzymes. In this assay, reduced DsbA provides the source of electrons that are used by EcDsbB to reduce ubiquinone-5. The compounds show dose-dependent inhibition of EcDsbB with half-maximal inhibitory concentrations (IC50) in the low-μM range.

E. coli DsbB = E. coli DsbB (Escherichia coli, UniProt P0A6M2); test: Blue/white beta-galactosidase agar assay, DsbB-based E. coli strain; type: cell-based; conditions: for MIC for blue color appearance / minimal inhibitory concentration of DsbB: β-galactosidase agar media assay; for inhibition of the DsbB-based strain, in words: agar assay
VKOR of M. tuberculosis = target: T8, VKOR of M. tuberculosis (Mycobacterium tuberculosis, UniProt I6X5W1); type: cell-based; conditions: agar assay
T8 sequence (I6X5W1 1-210): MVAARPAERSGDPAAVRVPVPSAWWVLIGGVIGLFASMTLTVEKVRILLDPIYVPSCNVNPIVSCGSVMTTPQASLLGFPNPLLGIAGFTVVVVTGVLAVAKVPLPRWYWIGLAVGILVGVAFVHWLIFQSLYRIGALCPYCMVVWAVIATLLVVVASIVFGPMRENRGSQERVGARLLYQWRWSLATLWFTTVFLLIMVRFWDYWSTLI

DsbB-DsbAC33A dimer = target: T9, DsbB-DsbAC33A dimer (Escherichia coli, UniProt P0A6M2, C49V/C8A); test: Mass spectrometry of DsbB-DsbAC33A complex treated with compound; type: binding, E. coli
T9 construct: made in house
Procedure: Since the theoretical molecular weight of compound 16.6 is 289.54 Da, the 35.9-Da mass loss may represent a leaving chloride ion. This mass adduct was not observed when either DsbB (oxidized), DsbA (reduced) or DsbAC33A, alone was treated with the compound (FIG. 7C).

DsbB [2] = target: DsbB (Escherichia coli, UniProt P0A6M2); test: Oxidation of DsbA by DsbB in growing E. coli (in vivo alkylation assay); conditions: liquid minimal medium
Procedure: Second, we measured MICs of the strongest inhibitors in terms of their effects on the oxidation of DsbA by DsbB and on the inhibition of disulfide bond formation in growing liquid cultures. […] The oxidation of DsbA was assessed by a standard alkylation assay for free cysteines in DsbA.
The in vivo chemical alkylation procedure was done as described previously (Chng S et al. Science 337, 1665-1668 (2012)). […] A 500 μl culture aliquot was then transferred to a 1.5 ml tube and precipitated with 50 μl of trichloroacetic acid (TCA, 100%, Mallinckrodt Baker). The mixture was incubated on ice for 10 min and precipitated proteins were pelleted at 18 000 g for 10 min. The protein pellet was washed with 600 μl ice-cold acetone and incubated on ice for 10 min. The protein was re-pelleted by centrifugation at 18 000 g for 3 min and left to air-dry at room temperature. The TCA-precipitated proteins were either directly subjected to alkylation or first reduced before alkylation. For reduction, proteins were incubated in 100 μl 100 mM Tris HCl, pH 8.0 containing 0.1% SDS and 100 mM dithiothreitol (DTT, Invitrogen) for 30 min at room temperature. M63 (500 μl) medium was added and the reduced proteins were re-precipitated with TCA and further washed with acetone. […]

[3] = tested on: DsbBs from other gram-negative pathogens; type: cell-based; conditions: agar assay, 384-well plates
[4] = tested on: RcsF, a substrate of DsbA; test: Disulfide bond formation in RcsF in growing E. coli liquid culture; type: cell-based; conditions: liquid minimal medium

E. coli DsbB, sequence (P0A6M2 whole entry): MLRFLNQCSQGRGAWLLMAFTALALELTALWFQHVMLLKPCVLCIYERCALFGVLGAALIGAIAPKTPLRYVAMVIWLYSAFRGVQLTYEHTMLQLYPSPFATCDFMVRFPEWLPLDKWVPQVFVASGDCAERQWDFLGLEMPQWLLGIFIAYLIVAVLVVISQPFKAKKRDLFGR
T6 sequence (P0A6M2 whole entry C8A/C49V): as the sequence (P0A6M2 whole entry) above, with C8A, C49V counted along it
T7 sequence (P0A6M2 whole entry C8A/C49V): as the sequence (P0A6M2 whole entry) above, with C8A, C49V counted along it
DsbB (Escherichia coli, UniProt P0A6M2), sequence (P0A6M2 whole entry): as the sequence (P0A6M2 whole entry) above
T9 sequence (P0A6M2 whole entry C8A/C49V): as the sequence (P0A6M2 whole entry) above, with C8A, C49V counted along it
T1 sequence (P07237 18-508, species assumed): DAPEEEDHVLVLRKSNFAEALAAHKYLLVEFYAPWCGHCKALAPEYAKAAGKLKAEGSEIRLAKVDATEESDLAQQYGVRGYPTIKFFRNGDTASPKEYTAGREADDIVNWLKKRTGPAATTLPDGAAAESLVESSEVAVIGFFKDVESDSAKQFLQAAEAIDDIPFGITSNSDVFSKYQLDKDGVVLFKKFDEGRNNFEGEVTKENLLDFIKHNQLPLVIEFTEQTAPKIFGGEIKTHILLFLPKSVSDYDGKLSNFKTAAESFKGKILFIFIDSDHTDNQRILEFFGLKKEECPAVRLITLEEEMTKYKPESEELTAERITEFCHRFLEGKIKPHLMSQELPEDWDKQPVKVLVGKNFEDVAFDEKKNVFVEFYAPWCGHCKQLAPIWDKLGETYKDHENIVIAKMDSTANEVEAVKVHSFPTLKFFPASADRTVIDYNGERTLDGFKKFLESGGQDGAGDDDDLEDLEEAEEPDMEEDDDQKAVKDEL

## CNC(=O)C#CCC1C(=O)c2ccccc2C1=O [Compound 1]
PDI
  inhibition of PDI activity: inhibited
Erp57
  inhibition of Erp57 activity: inhibited
M. tuberculosis H37Rv
  effect on growth of M. tuberculosis (in words): relatively strong effect in only one of the three media
Erp5
  inhibition of Erp5 activity: inhibited
Erp72
  inhibition of Erp72 activity: inhibited
Mouse VKORc1
  inhibition of VKOR activity: inhibited

## Cc1oncc1C(=O)Nc1ccccc1 [Compound 4]
M. tuberculosis H37Rv
  effect on growth of M. tuberculosis (in words): no effects

## Cc1nnc(-c2cccc(C)c2C)c(C)n1 [Compound 8]
M. tuberculosis H37Rv
  effect on growth of M. tuberculosis (in words): no effects

## CCCCNc1c(Cl)cnn(-c2ccccc2)c1=O [Compound 13]
DsbB [1]
  EC50: 30.4 µM
Purified EcDsbB; IC50 (μM), Table 9
  IC50: 8.12 µM

## CCOc1c(Cl)cnn(-c2ccccc2)c1=O [Compound 14]
DsbB [1]
  EC50: 25.6 µM
Purified EcDsbB; IC50 (μM), Table 9
  IC50: 6.57 µM

## O=c1c(N2CCCC2)c(Cl)cnn1-c1ccccc1 [Compound 15]
DsbB [1]
  EC50: 28.1 µM
Purified EcDsbB; IC50 (μM), Table 9
  IC50: 8.24 µM

## O=c1c(Cl)c(Cl)cnn1-c1ccccc1 [Compound 16.2]
DsbB [1]
  EC50: 2.04 µM
  fold more inhibitory than compound 16: 10 fold
  EC50 RATIO (EC50 compound 16/EC50): 2.49
Purified EcDsbB; IC50 (μM), Table 9
  IC50: 2.34 µM

## Cc1cccc(Cn2ncc(Cl)c(Cl)c2=O)c1 [Compound 16.4]
DsbB [1]
  EC50: 13.9 µM
  EC50 RATIO (EC50 compound 16/EC50): 0.37
Purified EcDsbB; IC50 (μM), Table 9
  IC50: 1.27 µM

## O=c1c(Cl)c(Cl)cnn1Cc1ccccc1Cl [Compound 16.6]
E. coli DsbB; MIC DsbB versus highest concentration without VKOR inhibition
  difference between inhibition of DsbB and of VKOR: equal to or greater than two orders of magnitude
E. coli DsbB
  MIC for blue color appearance / minimal inhibitory concentration of DsbB: 0.53 µM
VKOR of M. tuberculosis
  concentration up to which no inhibition of VKOR was observed: > 50 µM
DsbB [1]
  EC50: 0.16 µM
  fold more inhibitory than compound 16: 23 fold
  EC50 RATIO (EC50 compound 16/EC50): 23.03
Purified EcDsbB; in vitro assay, read-out: IC50
  IC50: 0.0189 µM
DsbB-DsbAC33A dimer; high-resolution tandem mass spectrometry, chymotrypsin digest
  adduct on Cys44 of DsbB: 252.995 Da
DsbB-DsbAC33A dimer; ion-trap mass spectrometry
  adduct with the DsbB-DsbAC33A dimer: 253.6 Da
DsbB [2]
  MIC, oxidation of DsbA by DsbB: 0.7 µM
[3]
  inhibition of DsbBs of other gram-negative bacteria expressed in E. coli, in words: most effective inhibitor; also recorded: one of the most effective inhibitors

## O=c1c(Cl)c(Cl)cnn1Cc1ccccc1 [Compound 16]
E. coli DsbB
  MIC for blue color appearance / minimal inhibitory concentration of DsbB: 5.7 µM
DsbB [1]
  EC50: 5.1 µM
  EC50 RATIO (EC50 compound 16/EC50): 1.00
Purified EcDsbB; IC50 (μM), Table 9
  IC50: 1.86 µM
Purified EcDsbB; IC50, purified DsbB
  IC50: 1.85 µM
[4]
  MIC, disulfide bond formation in RcsF: 100 µM (≈ 25.5 µg/mL)
DsbB [2]
  MIC, oxidation of DsbA by DsbB: 5 µM

## COc1c(Cl)cnn(-c2cccc(C)c2)c1=O [Compound 17]
DsbB [1]
  EC50: 72.8 µM
Purified EcDsbB; IC50 (μM), Table 9
  IC50: 5.42 µM

## COC(C)(C)C#CC(=O)c1cccc2ccccc12 [Compound 23]
E. coli DsbB
  inhibition of the DsbB-based strain, in words: weak inhibitor
M. tuberculosis H37Rv
  effect on growth of M. tuberculosis (in words): inhibitor of M. tuberculosis growth

## O=C1c2ccccc2C(=O)C1c1ccc(Br)cc1 [brominedione, reference compound]
E. coli DsbB
  inhibition of the DsbB-based strain, in words: not of the DsbB-based strain
VKOR of M. tuberculosis
  inhibition in the VKOR screen (MtbVKOR-based strain), in words: strong inhibitor
